Kd and Emax data for 10 molecules are collected here from patent publication US6469028B1, “Synthesis and use of retinoid compounds having negative hormone and/or anatgonist activities” (Allergan, Inc., priority 1995, dated 2002).

The target in assay [1] is T1, RARβ (Homo sapiens, UniProt P10826).
T1 sequence (P10826 1-455): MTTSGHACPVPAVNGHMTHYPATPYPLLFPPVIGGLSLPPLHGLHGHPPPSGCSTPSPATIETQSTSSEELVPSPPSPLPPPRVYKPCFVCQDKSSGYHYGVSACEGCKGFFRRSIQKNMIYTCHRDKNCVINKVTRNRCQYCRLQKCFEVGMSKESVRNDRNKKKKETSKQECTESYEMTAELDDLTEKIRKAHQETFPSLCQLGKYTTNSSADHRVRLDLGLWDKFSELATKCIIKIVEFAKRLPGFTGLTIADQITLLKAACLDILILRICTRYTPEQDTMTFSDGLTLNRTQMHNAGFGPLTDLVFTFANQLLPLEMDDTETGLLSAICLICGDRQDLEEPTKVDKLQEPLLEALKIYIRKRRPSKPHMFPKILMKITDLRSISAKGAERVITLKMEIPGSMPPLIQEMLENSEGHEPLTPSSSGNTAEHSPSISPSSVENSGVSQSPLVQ
Nature of the assay: Ligand binding assay. As to conditions: read-out: Kd (nanomolar) RARβ. The source says:
(§1) A holoreceptor transactivation assay and a ligand binding assay which measure the antagonist/agonist like activity of the compounds of the invention, or their ability to bind to the several retinoid receptor subtypes, respectively, are described in published PCT Application No. WO93/11755 (particularly on pages 30-33 and 37-41) published on Jun. 24, 1993, the specification of which is also incorporated herein by reference. A description of the holoreceptor transactivation assay is also provided below.
CV1 cells (5,000 cells/well) were transfected with an RAR reporter plasmid MTV-TREp-LUC (50 ng) along with one of the RAR expression vectors (10 ng) in an automated 96-well format by the calcium phosphate procedure of Heyman et al. Cell 68: 397-406. For RXR-α and RXR-γ transactivation assays, an RXR-responsive reporter plasmid CRBPII-tk-LUC (50 ng) along with the appropriate RXR expression vectors (10 ng) was used substantially as described by Heyman et al. above, and Allegretto et al. J. Biol. Chem. 268: 26625-26633. For RXR-β transactivation assays, an RXR-responsive reporter plasmid CPRE-tk-LUC ([…]) along with RXR-β expression vector ([…]) was used as described in above. These reporters contain DRI elements from human CRBPII and certain DRI elements from promotor, respectively (see Mangelsdorf et al. The Retinoids: Biology Chemistry and Medicine, pp. 319-349, Raven Press Ltd., New York and Heyman et al., cited above). A β-galactosidase (50 ng) expression vector was used as an internal control in the transfections to normalize for variations in transfection efficiency. The cells were transfected in triplicate for 6 hours, followed by incubation with retinoids for 36 hours, and the extracts were assayed for luciferase and […] activities. The detailed experimental procedure for holoreceptor transactivations has been described in Heyman et al. above, and Allegretto et al. cited above. The results obtained in this assay are expressed in EC50 numbers, as they are also in the chimeric receptor transactivation assay. The Heyman et al. Cell 68: 397-406, Allegretto et al. J. Biol. Chem. 268: 26625-26633, and Mangelsdorf et al. The Retinoids: Biology, Chemistry, and Medicine, pp. 319-349, Raven Press Ltd., New York, are expressly incorporated herein by reference. The results of ligand binding assay are expressed in Kd numbers. (See Cheng et al. Biochemical Pharmacology 22: 3099-3108, expressly incorporated herein by reference.) […]

Assay [2] has as its target T2, RARβ (Homo sapiens, UniProt P10826).
T2 sequence (P10826 1-448 isoform P10826-2): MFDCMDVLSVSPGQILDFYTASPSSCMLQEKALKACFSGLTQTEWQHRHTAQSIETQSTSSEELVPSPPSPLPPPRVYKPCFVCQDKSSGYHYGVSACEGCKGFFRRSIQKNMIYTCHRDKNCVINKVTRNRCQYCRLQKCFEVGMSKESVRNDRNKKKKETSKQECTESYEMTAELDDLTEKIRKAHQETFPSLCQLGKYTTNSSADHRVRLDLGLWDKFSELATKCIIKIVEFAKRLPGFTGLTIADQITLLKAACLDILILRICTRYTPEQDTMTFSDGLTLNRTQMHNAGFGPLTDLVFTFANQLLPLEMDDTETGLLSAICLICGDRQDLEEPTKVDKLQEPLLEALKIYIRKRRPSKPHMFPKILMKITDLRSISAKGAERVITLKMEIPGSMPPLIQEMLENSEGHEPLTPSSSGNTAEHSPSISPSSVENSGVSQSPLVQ
Kind of assay: Holoreceptor transactivation assay. Type of assay: cell-based. Details: expressed in transfected cells; host or cells: CV1 cells. As to conditions: relative to all trans retinoic acid; read-out: Transactivation Assay Efficacy (% of RA activity) RARβ.
Excerpt: as §1
CV1 cells (5,000 cells/well) were transfected with an RAR reporter plasmid MTV-TREp-LUC (50 ng) along with one of the RAR expression vectors (10 ng) in an automated 96-well format by the calcium phosphate procedure of Heyman et al. Cell 68: 397-406. For RXR-α and RXR-γ transactivation assays, an RXR-responsive reporter plasmid CRBPII-tk-LUC (50 ng) along with the appropriate RXR expression vectors (10 ng) was used substantially as described by Heyman et al. above, and Allegretto et al. J. Biol. Chem. 268: 26625-26633. For RXR-β transactivation assays, an RXR-responsive reporter plasmid CPRE-tk-LUC ([…]) along with RXR-β expression vector ([…]) was used as described in above. These reporters contain DRI elements from human CRBPII and certain DRI elements from promotor, respectively (see Mangelsdorf et al. The Retinoids: Biology Chemistry and Medicine, pp. 319-349, Raven Press Ltd., New York and Heyman et al., cited above). A β-galactosidase (50 ng) expression vector was used as an internal control in the transfections to normalize for variations in transfection efficiency. The cells were transfected in triplicate for 6 hours, followed by incubation with retinoids for 36 hours, and the extracts were assayed for luciferase and […] activities. The detailed experimental procedure for holoreceptor transactivations has been described in Heyman et al. above, and Allegretto et al. cited above. The results obtained in this assay are expressed in EC50 numbers, as they are also in the chimeric receptor transactivation assay. The Heyman et al. Cell 68: 397-406, Allegretto et al. J. Biol. Chem. 268: 26625-26633, and Mangelsdorf et al. The Retinoids: Biology, Chemistry, and Medicine, pp. 319-349, Raven Press Ltd., New York, are expressly incorporated herein by reference. The results of ligand binding assay are expressed in Kd numbers. (See Cheng et al. Biochemical Pharmacology 22: 3099-3108, expressly incorporated herein by reference.)
A compound should not cause significant activation of a reporter gene through a given receptor subtype (RAR-α, RAR-β or RAR-γ) in the holoreceptor transactivation assay, in order to qualify as an RAR antagonist with utility in the present invention.

The term Kd denotes the constant that tells how readily two partners part at equilibrium.

The structures appear in SMILES notation.

For `CC1(C)CC=C(c2ccc(C(F)(F)F)cc2)c2cc(C#Cc3ccc(C(=O)O)cc3)ccc21` [Compound 23, 4-[(5,6-Dihydro-5,5-dimethyl-8-(4-trifluoromethylphenyl)-2-naphthalenyl)ethynyl]benzoic acid], the Kd on RARβ [1] amounted to 25 nM. Besides, at RARβ [2], the Emax stood at 6%.

As for `Cc1ccc(C2=CCC(C)(C)c3ccc(C(=O)Nc4ccc(C(=O)O)c(F)c4)cc32)cc1` [Compound 41, 2-Fluoro-4-[[(5,6-dihydro-5,5-dimethyl-8-(4methylphenyl)-2-naphthalenyl)carbonyl]amino]-benzoic acid], the Kd on RARβ [1] worked out at 491 nM. For the same molecule, at RARβ [2], the Emax amounted to 5%.

For `Cc1cc(C)cc(C2=CCC(C)(C)c3ccc(C#Cc4ccc(C(=O)O)cc4)cc32)c1` [Compound 24, 4-[(5 6-Dihydro-5,5-dimethyl-8-(3,5-dimethylphenyl)-2-naphthalenyl)ethynyl]benzoic acid], on RARβ [1], the Kd was 235 nM. Besides, at RARβ [2], the Emax stood at 7%.

For the molecule `Cc1csc(C2=CCC(C)(C)c3ccc(C#Cc4ccc(C(=O)O)cc4)cc32)n1` [Compound 31, 4-[(5,6-Dihydro-5,5-dimethyl-8-(4-methylthiazol-2-yl)-2-naphthalenyl)ethynyl]benzoic acid], at RARβ [1], the Kd turned out to be 52 nM. Also, at RARβ [2], the Emax was 14%.

With `Cc1ccc(C2=CCC(C)(C)c3ccc(C(=S)Nc4ccc(C(=O)O)c(F)c4)cc32)cc1` [Compound 63, 2-fluoro-4-[[(5,6-dihydro-5,5-dimethyl-8-(4-methylphenyl)-2-naphthalenyl)thiocarbonyl]amino]-benzoic acid], the Kd on RARβ [1] was determined as 3220 nM. Also, the Emax at RARβ [2] worked out at 2%.

With `Cc1nc(C2=CCC(C)(C)c3ccc(C#Cc4ccc(C(=O)O)cc4)cc32)sc1C` [Compound 32], the Kd at RARβ [1] is 89 nM. The Emax at RARβ [2] worked out at 2%.

With `CC1(C)CC=C(c2ccccc2)c2ccc(C(=O)C=Cc3ccc(C(=O)O)cc3)cc21` [Compound 103, 4-[3-oxo-3-(7,8-dihydro-5-phenyl-8,8-dimethyl-2-naphthalenyl)-1-propenyl]-benzoic acid], the Kd on RARβ [1] amounted to 273 nM. In addition, on RARβ [2], the Emax amounted to 12%.

Consider `Cc1ccc(C2=CCC(C)(C)c3ccc(C#Cc4ccc(C(=O)O)cc4)cc32)cc1` [Compound 60, 4-[(5,6-dihydro-5,5-dimethyl-8-(4-methylphenyl)-2-naphthalenyl)ethynyl]benzoic acid], for which, on RARβ [1], the Kd was 1.9 nM. The Emax at RARβ [2] was 1%.

Consider `Cc1ccc(C2=CCC(C)(C)c3ccc(C#Cc4ccc(C(=O)O)cc4)cc32)s1` [Compound 34, 4-[(5,6-Dihydro-5,5-dimethyl-8-(5-methyl-2-thienyl)-2-naphthalenyl)ethynyl]benzoic acid], for which the Kd at RARβ [1] turned out to be 30 nM. Further, on RARβ [2], the Emax was found to be 5%.

With `Cc1ccccc1C1=CCC(C)(C)c2ccc(C#Cc3ccc(C(=O)O)cc3)cc21` [Compound 27, 4-[(5,6-Dihydro-5,5-dimethyl-8-(2-methylphenyl)-2-naphthalenyl)ethynyl]benzoic acid], the Kd on RARβ [1] amounted to 14 nM. In addition, the Emax on RARβ [2] amounted to 14%.
